21 compounds from PubChem BioAssay AID328 (DTP/NCI, 2004) can be followed below.

Values joined by “and” are separate entries in the source; they are usually repeats but may differ in a detail not shown here. Equal entries are not always repeated. Toxic doses and inconclusive results are not listed.

The experiment concerns BDF1 mice, P388 leukemia ip, median survival T/C. The experiment is described as follows: NCI In Vivo Anticancer Drug Screen. Data for tumor model P388 Leukemia (intraperitoneal) in B6D2F1 (BDF1) mice. To be noted: endpoint: median survival time, higher = longer survival. The method in brief:
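Survival ratio, drug arm over vehicle arm, in mice with a transplanted tumour.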

Where [1] appears, read: dose: 100.0 mg/kg/injection, schedule: Q04DX003 (ip), vehicle: Klucel (hydroxypropylcellulose) (HPC).
The mark [2] stands for this setting: dose: 200.0 mg/kg/injection, schedule: Q04DX003 (ip), vehicle: Klucel (hydroxypropylcellulose) (HPC).
Where [3] appears, read: dose: 50.0 mg/kg/injection, schedule: Q01DX009 (ip), vehicle: saline with Tween-80.
[4] abbreviates: dose: 100.0 mg/kg/injection, schedule: Q01DX009 (ip), vehicle: saline with Tween-80.
Where [5] appears, read: dose: 200.0 mg/kg/injection, schedule: Q01DX009 (ip), vehicle: saline with Tween-80.
Setting [6] is: dose: 100.0 mg/kg/injection, schedule: Q04DX003 (ip), vehicle: saline with Tween-80.
Where [7] appears, read: dose: 400.0 mg/kg/injection, schedule: Q04DX003 (ip), vehicle: saline with Tween-80.
[8] abbreviates: dose: 200.0 mg/kg/injection, schedule: Q04DX003 (ip), vehicle: saline with Tween-80.
Setting [9] is: dose: 400.0 mg/kg/injection, schedule: Q01DX009 (ip), vehicle: saline with Tween-80.

On to `ClCC[N-]CC[N-]CCCl.ClCC[N-]CC[N-]CCCl.[O-][Cl+3]([O-])([O-])O.[Zn+2]`, for which the T/C runs as follows: (dose: 2.5 mg/kg/injection, schedule: Q04DX003 (ip), vehicle: Klucel (hydroxypropylcellulose) (HPC)) 105 % of control; (dose: 5.0 mg/kg/injection, schedule: Q03DX003 (ip), vehicle: saline) 110 % of control; (dose: 5.0 mg/kg/injection, schedule: Q04DX003 (ip), vehicle: Klucel (hydroxypropylcellulose) (HPC)) 112 % of control; (dose: 10.0 mg/kg/injection, schedule: Q04DX003 (ip), vehicle: Klucel (hydroxypropylcellulose) (HPC)) 108 % of control; (dose: 20.0 mg/kg/injection, schedule: Q04DX003 (ip), vehicle: Klucel (hydroxypropylcellulose) (HPC)) 124 % of control; (dose: 40.0 mg/kg/injection, schedule: Q03DX003 (ip), vehicle: saline) 75 % of control. Besides, the T/C was 154 % of control (dose: 40.0 mg/kg/injection, schedule: Q04DX003 (ip), vehicle: Klucel (hydroxypropylcellulose) (HPC)) and 33 % of control (dose: 80.0 mg/kg/injection, schedule: Q03DX003 (ip), vehicle: saline).

For `Nc1ccc(Nc2ccncc2)cc1`, the T/C (dose: 50.0 mg/kg/injection, schedule: Q04DX003 (ip), vehicle: Klucel (hydroxypropylcellulose) (HPC)) was 100 % of control; the T/C under setting [1] was 95 % of control; the T/C under setting [2] was 90 % of control.

Take `O=C(OC(=O)c1ccc([N+](=O)[O-])cc1)c1ccc([N+](=O)[O-])cc1`: the T/C was 110 % of control (dose: 100.0 mg/kg/injection, schedule: Q04DX003 (sc), vehicle: olive oil, sesame oil, peanut oil); 105 % of control (dose: 200.0 mg/kg/injection, schedule: Q04DX003 (sc), vehicle: olive oil, sesame oil, peanut oil); 105 % of control (dose: 400.0 mg/kg/injection, schedule: Q04DX003 (sc), vehicle: olive oil, sesame oil, peanut oil).

Consider `N=c1c(C(N)=O)cnc2n1CCCCC2`, for which the T/C (dose: 100.0 mg/kg/injection, schedule: Q04DX003 (ip), vehicle: saline) was 109 % of control.

Take `C=C1C(=O)CCC1/C=C\C` (stereo unspecified): the T/C (dose: 50.0 mg/kg/injection, schedule: Q01DX005 (ip), vehicle: saline with Tween-80) was 97 % of control.

On to `CCN(CC)CCCC(C)Nc1ccnc2cc(Cl)cnc12` (stereo unspecified) (tested in a mixture with another compound), for which the T/C was 107 % of control under setting [3], 114 % of control under setting [4] and 98 % of control under setting [5].

On to `Cc1ccnc(NC(=O)Nc2cc(Cl)ccc2Cl)c1`, for which the T/C by setting is: (dose: 12.5 mg/kg/injection, schedule: Q01DX009 (ip), vehicle: Klucel (hydroxypropylcellulose) (HPC)) 101 % of control; (dose: 25.0 mg/kg/injection, schedule: Q01DX009 (ip), vehicle: Klucel (hydroxypropylcellulose) (HPC)) 103 % of control; (dose: 50.0 mg/kg/injection, schedule: Q01DX009 (ip), vehicle: Klucel (hydroxypropylcellulose) (HPC)) 120 % of control.

Regarding `CSc1nc(NCc2ccc(Cl)cc2)c2[nH]c(C)nc2n1`, the T/C is 122 % of control (dose: 0.78 mg/kg/injection, schedule: Q01DX009 (ip), vehicle: saline with Tween-80); 101 % of control (dose: 1.56 mg/kg/injection, schedule: Q01DX009 (ip), vehicle: saline with Tween-80); 97 % of control (dose: 3.13 mg/kg/injection, schedule: Q01DX009 (ip), vehicle: saline with Tween-80); 93 % of control (dose: 6.25 mg/kg/injection, schedule: Q01DX009 (ip), vehicle: saline with Tween-80).

For `CCC1NC(=O)C(NC(=O)c2ncccc2O)C(C)OC(=O)C(c2ccccc2)NC(=O)C2CC(=O)CCN2C(=O)C(Cc2ccccc2)N(C)C(=O)C2CCCN2C1=O` (stereo unspecified) (tested in a mixture with another compound), the T/C by setting is: (dose: 18.75 mg/kg/injection, schedule: Q01DX009 (ip), vehicle: Klucel (hydroxypropylcellulose) (HPC)) 99 % of control; (dose: 37.5 mg/kg/injection, schedule: Q01DX009 (ip), vehicle: Klucel (hydroxypropylcellulose) (HPC)) 105 % of control; (dose: 75.0 mg/kg/injection, schedule: Q01DX009 (ip), vehicle: Klucel (hydroxypropylcellulose) (HPC)) 111 % of control.

For `CCCCCCCOc1cccc(OCCCC[N+]2(CC)CCCCC2)c1`, the T/C (dose: 6.25 mg/kg/injection, schedule: Q01DX009 (ip), vehicle: saline) is 110 % of control.

For the compound `O=[N+]([O-])c1ccc(N=Cc2ccccc2)cc1`, the T/C under setting [1] is 100 % of control; the T/C under setting [2] is 108 % of control; the T/C (dose: 400.0 mg/kg/injection, schedule: Q04DX003 (ip), vehicle: Klucel (hydroxypropylcellulose) (HPC)) is 108 % of control.

For `NC(N)=N/N=C\c1c2ccccc2cc2ccccc12`, the T/C is 155 % of control (dose: 3.13 mg/kg/injection, schedule: Q01DX009 (ip), vehicle: other); 155 % of control (dose: 6.25 mg/kg/injection, schedule: Q01DX009 (ip), vehicle: other); 157 % of control (dose: 12.5 mg/kg/injection, schedule: Q01DX009 (ip), vehicle: other).

As to `S=C1NC2=S(N=C(Nc3ccccc3)N2c2ccccc2)S1` (stereo unspecified), the T/C runs as follows: under setting [3], 94 % of control; under setting [4], 96 % of control; under setting [5], 93 % of control.

Turning to `CCCC(=O)OCc1ccc(Cl)cc1Cl`, the T/C is, setting by setting: under setting [6], 109 % of control; under setting [7], 113 % of control.

For `CCOC(=O)C(Cc1ccc(OC)c(OC)c1)C(Cc1ccc(OC)c(OC)c1)C(=O)OCC` (stereo unspecified), the T/C under setting [4] was 90 % of control and the T/C under setting [5] was 104 % of control.

As to `COc1cc(OC)cc(C(=O)Br)c1`, the T/C under setting [4] is 91 % of control; the T/C under setting [6] is 90 % of control; the T/C under setting [5] was 91 % of control; the T/C under setting [8] is 90 % of control; the T/C under setting [9] was 91 % of control; the T/C under setting [7] is 95 % of control.

For `CCCSc1ncnc2nc[nH]c12`, the T/C is 95 % of control and 120 % of control (dose: 31.3 mg/kg/injection, schedule: Q01DX010 (ip), vehicle: saline); 100 % of control and 105 % of control (dose: 62.5 mg/kg/injection, schedule: Q01DX010 (ip), vehicle: saline); 95 % of control and 100 % of control (dose: 125.0 mg/kg/injection, schedule: Q01DX010 (ip), vehicle: saline).

In the case of `Cc1cccc(Nc2sc(C(=O)c3cc4cc(Cl)ccc4o3)c(N)c2C#N)c1`, the T/C is, setting by setting: under setting [3], 108 % of control; under setting [4], 102 % of control; under setting [5], 111 % of control.

For the compound `O=C(CSc1ncnc2nc[nH]c12)c1ccccc1`, the T/C by setting is: under setting [4], 104 % of control; under setting [6], 86 % of control; under setting [5], 104 % of control; under setting [8], 100 % of control; under setting [9], 100 % of control; under setting [7], 91 % of control.

On to `CCCCOc1ccc(C(=O)N/N=C(\C)[C@]2(O)Cc3c(O)c4c(c(O)c3[C@@H](OC3CC(N)C(O)C(C)O3)C2)C(=O)c2c(OC)cccc2C4=O)cc1` (stereo partly specified), for which the T/C is, setting by setting: (dose: 1.0 mg/kg/injection, schedule: Q01DX009 (ip), vehicle: water) 173 % of control; (dose: 2.0 mg/kg/injection, schedule: Q01DX009 (ip), vehicle: water) 157 % of control and 173 % of control; (dose: 4.0 mg/kg/injection, schedule: Q01DX009 (ip), vehicle: water) 169 % of control.

With `COc1cc([N+](=O)[O-])c(C)cc1Nc1ccc(OC)c(OC)c1`, the T/C under setting [3] is 100 % of control; the T/C under setting [4] is 103 % of control and 106 % of control; the T/C under setting [6] was 100 % of control; the T/C under setting [5] is 87 % of control and 94 % of control; the T/C under setting [8] was 100 % of control; the T/C under setting [9] was 97 % of control and 100 % of control. The T/C under setting [7] was 90 % of control.
